The source of these data is US5663331A, “Cephalosporin compounds” (Il-Dong Pharm. Co., Ltd., priority 1992, dated 1997).

The MIC is the least concentration at which growth counts as inhibited.

Type in all cases: cell-based
Experiment [1] has as its system Streptococcus faecalis ATCC 10541. The experiment in a line: MIC, two-fold dilution method, Streptococcus faecalis ATCC 10541. The settings on record: 10^6 CFU per ml, 37° C., 18 to 20 hours; for MIC: Enterococcus faecalis, ATCC10541, Muller Hinton Broth, read-out: Antibacterial Activity (MIC); for Antibacterial Activity (MIC): Muller Hinton Broth. The procedure:
(§1) In order to illustrate the usefulness of the invented compounds, the minimal inhibitory concentrations-(MIC) thereof against standard strains were determined and compared with Cefotaxime, a known compound. Also, the in vitro antibacterial activity was determined by a two-fold dilution method as described below: That is, the two-fold serial dilutions of the compound were made and dispersed in Muller Hinton Broth medium. Standard test strain which had the 10^6 CFU per ml was inoculated on the medium, and was incubated at 37° C. for 18 to 20 hours.

For experiment [2], the system named is Pseudomonas aeurginosa NCTC 10490. The experiment in a line: MIC, two-fold dilution method, Pseudomonas aeurginosa NCTC 10490. The settings on record: 10^6 CFU per ml, 37° C., 18 to 20 hours; for MIC: NCTC10490, Muller Hinton Broth, read-out: Antibacterial Activity (MIC); for Antibacterial Activity (MIC): Muller Hinton Broth. As for the experimental part:
as §1

Experiment [3] has as its system Klebsiella pneumoniae ATCC 10031. The experiment in a line: MIC, two-fold dilution method, Klebsiella pneumoniae ATCC 10031. The following applies: 10^6 CFU per ml, 37° C., 18 to 20 hours; for MIC: ATCC10031, Muller Hinton Broth, read-out: Antibacterial Activity (MIC); for Antibacterial Activity (MIC): Muller Hinton Broth. The procedure:
as §1

Experiment [4] relates to Esherichia coli ATCC 25922. The experiment can be described thus: MIC, two-fold dilution method, Esherichia coli ATCC 25922. The following applies: Muller Hinton Broth, 10^6 CFU per ml, 37° C., 18 to 20 hours, read-out: Antibacterial Activity (MIC). As for the experimental part: as §1
For experiment [5], the system named is Staphylococcus aureus ATCC 65389. The experiment can be described thus: MIC, two-fold dilution method, Staphylococcus aureus ATCC 65389. The following applies: 10^6 CFU per ml, 37° C., 18 to 20 hours; for MIC: ATCC65389, Muller Hinton Broth, read-out: Antibacterial Activity (MIC); for Antibacterial Activity (MIC): Muller Hinton Broth. As for the experimental part: as §1

In experiment [6] the test system is Staphylococcus epidermidis ATCC 12228. The experiment in a line: MIC, two-fold dilution method, Staphylococcus epidermidis ATCC 12228. The settings on record: 10^6 CFU per ml, 37° C., 18 to 20 hours; for MIC: ATCC12228, Muller Hinton Broth, read-out: Antibacterial Activity (MIC); for Antibacterial Activity (MIC): Muller Hinton Broth. The procedure: as §1
In experiment [7] the test system is Bacillus subtilis ATCC 6633. The experiment in a line: MIC, two-fold dilution method, Bacillus subtilis ATCC 6633. The settings on record: 10^6 CFU per ml, 37° C., 18 to 20 hours; for MIC: ATCC6633, Muller Hinton Broth, read-out: Antibacterial Activity (MIC); for Antibacterial Activity (MIC): Muller Hinton Broth. As for the experimental part: as §1

Converted amounts (≈) assume the structure as drawn.

Regarding `C=CC[n+]1ccc(SCC2=C(C(=O)[O-])N3C(=O)C(NC(=O)/C(=N\OC)c4csc(N)n4)C3SC2)c2cc(F)c(N3CCN(CC)CC3)cc21` (stereo not shown) [Compound I-15, 7-[(Z)-2(2-aminothiazol-4-yl)-2-(methoxyimino)acetamido]-3-[1-allyl-6-fluoro-7-(1-ethylpiperazinyl)quinolinium-4-yl]thiomethyl-3-cephem-4-carboxylate], the minimal inhibitory concentration (MIC) in experiment [1] was 0.39 µg/mL (≈ 0.537 µM); in experiment [2], 1.56 µg/mL (≈ 2.15 µM); in experiment [3], 0.39 µg/mL (≈ 0.537 µM); in experiment [4] it was 1.56 µg/mL (≈ 2.15 µM); in experiment [5] it was 0.2 µg/mL (≈ 0.275 µM); in experiment [6] it was 0.78 µg/mL (≈ 1.07 µM). In addition, in experiment [7], the minimal inhibitory concentration (MIC) is 0.1 µg/mL (≈ 0.138 µM).
Turning to `CO/N=C(\C(=O)NC1C(=O)N2C(C(=O)[O-])=C(CSc3cc[n+](C)c4cc(N5CCN(C)CC5)c(F)cc34)CSC12)c1csc(N)n1` (stereo not shown) [Compound I-2, 7-[(Z)-2-(2-aminothiazol-4-yl)-2-(methoxyimino)acetamido]-3-[1-methyl-6-fluoro-7-(N-methylpiperazinyl)quinolinium-4-yl]thiomethyl-3-cephem-4-carboxylate], the MIC is 0.39 µg/mL (≈ 0.568 µM) in experiment [1]; 3.13 µg/mL (≈ 4.56 µM) in experiment [2]; 0.39 µg/mL (≈ 0.568 µM) in experiment [3]; 12.5 µg/mL (≈ 18.2 µM) in experiment [4]; 1.56 µg/mL (≈ 2.27 µM) in experiment [5]; 0.78 µg/mL (≈ 1.14 µM) in experiment [6]. For the same compound, the minimal inhibitory concentration (MIC) in experiment [7] turned out to be 0.39 µg/mL (≈ 0.568 µM).
As for `C=CCO/N=C(\C(=O)NC1C(=O)N2C(C(=O)[O-])=C(CSc3cc[n+](C4CC4)c4cc(N5CCN(CC)CC5)c(F)cc34)CSC12)c1csc(N)n1` (stereo not shown) [Compound I-27], the minimal inhibitory concentration (MIC) in experiment [1] is 0.2 µg/mL (≈ 0.266 µM); in experiment [2] it was 0.78 µg/mL (≈ 1.04 µM); in experiment [3], 0.39 µg/mL (≈ 0.518 µM); in experiment [5], 0.2 µg/mL (≈ 0.266 µM); in experiment [6], 0.2 µg/mL (≈ 0.266 µM); in experiment [7] it was 0.2 µg/mL (≈ 0.266 µM).
Turning to `C=CCO/N=C(\C(=O)NC1C(=O)N2C(C(=O)[O-])=C(CSc3cc[n+](C4CC4)c4cc(N5CCNCC5C)c(F)cc34)CS[C@H]12)c1csc(N)n1` (stereo partly shown) [Compound I-28, 7-[(Z)-2-(2-aminothiazol-4-yl)-2-(allyloxyimino)acetamido]-3-[1-cyclopropyl-6-fluoro-7-(2-methylpiperazinyl)quinolinium-4-yl]thiomethyl-3-cephem-4-carboxylate], the “Antibacterial Activity (MIC)” value came to 0.2 µg/mL in experiment [1]; 1.56 µg/mL in experiment [2]; 0.78 µg/mL in experiment [3]; 0.2 µg/mL in experiment [5]; 0.2 µg/mL in experiment [6]; 0.39 µg/mL in experiment [7].
For the compound `CO/N=C(\C(=O)NC1C(=O)N2C(C(=O)[O-])=C(CSc3cc[n+](C)c4cc(-n5cnc(C)c5)c(F)cc34)CSC12)c1csc(N)n1` (stereo not shown) [Compound I-18, 7-[(Z)-2-(2-aminothiazol-4-yl)-2-(methoxyimino)acetamido]-3-[1-methyl-6-fluoro-7-(4-methylimidazolyl)quinolinium-4-yl]thiomethyl-3-cephem-4-carboxylate], the “Antibacterial Activity (MIC)” value in experiment [1] came to 0.2 µg/mL; in experiment [2], 1.56 µg/mL; in experiment [5] it was 0.2 µg/mL; in experiment [6] it was 0.2 µg/mL; in experiment [7], 0.1 µg/mL.
Take `C#CCO/N=C(\C(=O)NC1C(=O)N2C(C(=O)[O-])=C(CSc3cc[n+](C)c4cc(N5CCN(C)CC5)c(F)cc34)CSC12)c1csc(N)n1` (stereo not shown) [Compound I-38, 7-[(Z)-2-(2-aminothiazol-4-yl)-2-(propargyloxyimino)acetamido]-3-[1-methyl-6-fluoro-7-(N-methylpiperazinyl)quinolinium-4-yl]thiomethyl-3-cephem-4-carboxylate]: the minimal inhibitory concentration (MIC) in experiment [1] is 0.2 µg/mL (≈ 0.281 µM); in experiment [2] it was 0.78 µg/mL (≈ 1.1 µM); in experiment [3] it was 3.13 µg/mL (≈ 4.4 µM); in experiment [5], 0.78 µg/mL (≈ 1.1 µM); in experiment [6], 0.39 µg/mL (≈ 0.549 µM); in experiment [7] it was 0.78 µg/mL (≈ 1.1 µM).
With `C#CCO/N=C(\C(=O)NC1C(=O)N2C(C(=O)[O-])=C(CSc3cc[n+](C)c4cc(N5CCNCC5)c(F)cc34)CS[C@H]12)c1csc(N)n1` (stereo partly shown) [Compound I-37, 7-[(Z)-2-(2-aminothiazol-4-yl)-2-(propargyloxyimino)acetamido]-3-(1-methyl-6-fluoro-7-piperazinylquinolinium-4-yl)thiomethyl-3-cephem-4-carboxylate], the MIC stood at 0.2 µg/mL (≈ 0.287 µM) in experiment [1]; 0.2 µg/mL (≈ 0.287 µM) in experiment [2]; 0.78 µg/mL (≈ 1.12 µM) in experiment [3]; 0.39 µg/mL (≈ 0.56 µM) in experiment [5]; 0.78 µg/mL (≈ 1.12 µM) in experiment [6]; 0.2 µg/mL (≈ 0.287 µM) in experiment [7].
As to `C#CCO/N=C(\C(=O)NC1C(=O)N2C(C(=O)[O-])=C(CSc3cc[n+](C)c4cc(N5CCN(CC)CC5)c(F)cc34)CSC12)c1csc(N)n1` (stereo not shown) [Compound I-39], the MIC in experiment [1] is 0.2 µg/mL (≈ 0.276 µM); in experiment [2], 0.2 µg/mL (≈ 0.276 µM); in experiment [3] it was 0.78 µg/mL (≈ 1.08 µM); in experiment [5] it was 0.39 µg/mL (≈ 0.538 µM); in experiment [6], 0.2 µg/mL (≈ 0.276 µM); in experiment [7], 0.2 µg/mL (≈ 0.276 µM).
With `C#CCO/N=C(\C(=O)NC1C(=O)N2C(C(=O)[O-])=C(CSc3cc[n+](C)c4cc(N5CCNCC5C)c(F)cc34)CS[C@H]12)c1csc(N)n1` (stereo partly shown) [Compound I-40, 7-[(Z)-2-(2-aminothiazol-4-yl)-2-(propargyloxyimino)acetamido]-3-[1-methyl-6-fluoro-7-(2-methylpiperazinyl)quinolinium-4-yl]thiomethyl-3-cephem-4-carboxylate], the “Antibacterial Activity (MIC)” value was 0.2 µg/mL in experiment [1]; 0.2 µg/mL in experiment [2]; 0.78 µg/mL in experiment [3]; 0.39 µg/mL in experiment [5]; 0.1 µg/mL in experiment [6]; 0.2 µg/mL in experiment [7].
In the case of `CC[n+]1ccc(SCC2=C(C(=O)[O-])N3C(=O)C(NC(=O)/C(=N\OC(C)(C)C(=O)O)c4csc(N)n4)[C@H]3SC2)c2cc(F)c(-n3ccnc3)cc21` (stereo partly shown) [Compound I-65, 7-[(Z)-2-(2-aminothiazol-4-yl)-2-(2-carboxyprop-2-oxyimino)acetamido]-3-(1-ethyl-6-fluoro-7-imidazolylquinolinium-4-yl)thiomethyl-3-cephem-4-carboxylate], the “Antibacterial Activity (MIC)” value in experiment [1] amounted to 0.39 µg/mL; in experiment [2], 1.56 µg/mL; in experiment [3] it was 1.56 µg/mL; in experiment [5] it was 1.56 µg/mL; in experiment [6] it was 1.56 µg/mL; in experiment [7] it was 0.39 µg/mL.
Regarding `CC[n+]1ccc(SCC2=C(C(=O)[O-])N3C(=O)C(NC(=O)/C(=N\OC(C)(C)C(=O)O)c4csc(N)n4)[C@H]3SC2)c2cc(F)c(N3CCNCC3)cc21` (stereo partly shown) [Compound I-53, 7-[(Z)-2-(2-aminothiazol-4-yl)-2-(2-carboxyprop-2-oxyimino)acetamido]-3-(1-ethyl-6-fluoro-7-piperazinylquinolinium-4-yl)thiomethyl-3-cephem-4-carboxylate], the “Antibacterial Activity (MIC)” value in experiment [1] turned out to be 0.39 µg/mL; in experiment [2], 1.56 µg/mL; in experiment [3], 1.56 µg/mL; in experiment [5], 3.13 µg/mL; in experiment [6], 1.56 µg/mL; in experiment [7], 0.39 µg/mL.
